In US20260000596A1, “SEMI-SYNTHETIC RHAMNOLIPIDS” (The Procter & Gamble Company, priority 2024, published 2026):
Values after ≈ are worked out from the molar mass of the structure shown. Read-outs that look alike come from different tables or passages of the source.

Legend:
Assay type in all cases: cell-based
[1] = test system: Escherichia coli ATCC 8739; test: Minimal Kill Concentration Assay (MKCA), E. coli; settings: for MBC: Escherichia coli, ATCC8739, 20 min, read-out: E. coli MKC (ppm)
Protocol: (§1) The MKC assay is a 96 well plate method to determine the minimum concentration of a test material or composition needed to kill Gram-negative and Gram-positive bacteria (Escherichia coli ATCC 8739 and Staphylococcus aureus ATCC 6538, respectively). The bacterial suspensions are prepared from 10× freezer stocks with 15% glycerol. The freezer stocks are centrifuged at 13,000×g (Eppendorf Centrifuge […] No. 541705483) for 1 minute. The supernatant is removed, and the cell pellet is resuspended in 1 mL saline (Sodium chloride solution 0.9%, Cytiva REF: Z1376), and then transferred to 9 mL saline. The target cfu/ml is 10^8, which is confirmed via serial diluting and plating on TSA plates (Tryptic Soy Agar-Sigma-Aldrich Cat #22091). Then 50 μL (25 μL if low on test materials) of bacteria is added to each well of a 96 well 0.5 mL V-Bottom plate (Greiner bio-one REF: 786201) to make a bacteria plate, one separate plate for each bacterium. The dilutions of the test compounds are prepared in a separate 96 well plate. The test compounds are tested at six dilutions in duplicates or with no replication diluted across the entire plate. The test compounds are prepared in Dimethyl Sulfoxide (Sigma Aldrich GR ACS Cat. No: MX1458-6) or sterile water at 2× the intended test concentration, and then serially diluted in the appropriate vehicle 1:2 across the plate using a multichannel. 50 μL (25 μL if low on test materials) from the test compound plate is added to each well in the bacteria plate all at once using an Integra VIAFLOW 96 channel pipette (Model: VIAFLO 96) and the Integra 300 μL Head (Part No. 6103). With addition of the 2× compounds bacteria plate, the compounds are diluted to a 1× test concentration. The addition of the test compounds to the bacteria wells starts the 20-minute contact time. The plates are mixed well using a Mix-Mate (Eppendorf SE). After 20 minutes, 1 μL from each well of the bacteria plate is transferred to premade Tryptic Soy Agar (TSA) plates (OmniTray Cell Culture Treated w/Lid Sterile, Cat. No: 165218) for spot plating using the Integra VIAFLOW 96 with the Integra 12.5 μL head (Part No. 6101). Then 4 μL from each well of the bacteria/compound plate is transferred to another 96 well plate containing 36 μL of neutralizer broth Modified Letheen Broth (BD Difco Letheen Broth, Modified REF 263010). The contact time is stopped at 20 minutes once the compound plate is neutralized. The plates are mixed well using a Mix-Mate and then 1 μL of the neutralizer+sample mix is transferred to a TSA OmniTray plate using the Integra VIAFLOW and Integra 12.5 μL head. The TSA spot plates are then incubated overnight for 20 hours at 37° C. in an Incubator. This process is done for both bacteria species. After overnight incubation, the plates are removed from the incubator and the results recorded by observing which dilutions had bacterial kill/growth. The last dilution that had kill for both replicates is recorded as the MKC. A positive control of Benzalkonium chloride (Sigma Aldrich Cat. No.: 12060-5G) and vehicle controls are always included in the test.

[2] = test system: Staphylococcus aureus ATCC 6538; test: Minimal Kill Concentration Assay (MKCA), S. aureus; settings: for minimal kill concentration (20-minute contact) / S. aureus MKC (ppm): 20-minute contact time
Protocol: as §1

[3] = test system: Staphylococcus aureus ATCC #6538; test: Minimum Inhibitory Concentration (MIC) Assay with Minimum Biocidal Concentration (MBC); settings: solvent DMSO; for MBC / MIC: Staphylococcus aureus, ATCC6538, 24 h; for MBC: read-out: S. aureus MBC (ppm); for MIC: read-out: S. aureus MIC (ppm)
Protocol: The Minimum Inhibitory Concentration (MIC) Assay is a 96-well high throughput method that determines the minimum concentration of an active required to inhibit the growth of microorganisms. Organism preparation: Compounds were evaluated against the following microorganisms: Staphylococcus aureus ATCC #6538 (American Type Culture Collection, Manassas, Virginia, USA). To prepare bacteria solutions, bacteria were streaked on Tryptic Soy Agar (TSA) and incubated at 30-35° C. for 18-24 hrs. Confluent growth was transferred to saline (0.85% NaCl) and turbidometrically adjusted to a target concentration of 10^7-10^8 CFU/ml. This inoculum solution was further diluted 1:1000 in Tryptic Soy Broth (pH 7) for assay use. Assay: Two-fold serial dilutions were prepared in Dimethylsulfoxide (DMSO, Thermo Scientific Pierce DMSO, Sequencing Grade) or sterile water for each test sample. In a sterile 96-well plate, each dilution was further diluted in broth inoculum such that each well contained 5% dilution and 95% broth inoculum. Bacteria plates were incubated on an orbital shaker (Heidolph Titramax 1000 Vibrating Platform Shaker, 200-300 rpm) for 24±2 hrs at 35° C. After incubation, the optical density (OD) of each well was measured in a spectrophotometer (Victor Nivo Multimode Plate Reader) at 600 nm. […] To determine the Minimum Biocidal Concentration (MBC), 2 ul from each well was pipetted onto neutralizing agar (Modified Letheen Agar with Tween) and incubated for 24 hrs at 30-35° C. The MBC was determined as the most dilute concentration with no visible growth.

[4] = Table 4, derivatized rhamnolipids, solvent DMSO, 20-minute contact time
[5] = Staphylococcus aureus, ATCC6538, 20 min, Table 4, derivatized rhamnolipids, solvent DMSO, read-out: S. aureus MKC (ppm)
[6] = Table 1.4b, solvent DMSO, 20-minute contact time
[7] = Table 1.5, >=50% inhibition, 24 hrs at 35° C.
[8] = Table 1.4b, solvent water, 20-minute contact time
[9] = Staphylococcus aureus, ATCC6538, 20 min, Table 1.4b, solvent water, read-out: S. aureus MKC (ppm)
[10] = Table 4, derivatized rhamnolipids, solvent DMSO

Compound	MBC [1, 4]	minimal kill concentration (20-minute contact) [2, 5]	MBC ([3]; Table 5)	MIC ([3]; Table 5)	other results
CCCCCCCC(CC(=O)NCC(CC)CCCC)O[C@@H]1O[C@@H](C)[C@H](O)[C@@H](O)[C@H]1O[C@@H]1O[C@@H](C)[C@H](O)[C@@H](O)[C@H]1O (stereo partly drawn) [3-(((2R,3R,4R,5R,6S)-4,5-dihydroxy-6-methyl-3-(((2S,3R,4R,5R,6S)-3,4,5-trihydroxy-6-methyltetrahydro-2H-pyran-2-yl)oxy)tetrahydro-2H-pyran-2-yl)oxy)-N-(2-ethylhexyl)decanamide]	> 5920 µg/mL	2960 µg/mL	592 µg/mL (≈ 1 mM)	296 µg/mL (≈ 0.5 mM)	
CCCCCCCC(CC(=O)N(CCCC)CCCC)O[C@@H]1O[C@@H](C)[C@H](O)[C@@H](O)[C@H]1O[C@@H]1O[C@@H](C)[C@H](O)[C@@H](O)[C@H]1O (stereo partly drawn) [N,N-dibutyl-3-(((2R,3R,4R,5R,6S)-4,5-dihydroxy-6-methyl-3-(((2S,3R,4R,5R,6S)-3,4,5-trihydroxy-6-methyltetrahydro-2H-pyran-2-yl)oxy)tetrahydro-2H-pyran-2-yl)oxy)decanamide]	5920 µg/mL (≈ 10 mM)	2960 µg/mL	296 µg/mL (≈ 0.5 mM)	296 µg/mL (≈ 0.5 mM)	
CCCCCCCCCCCCCC(O)CC(=O)O (racemic) [DL-β-Hydroxypalmitic acid, reference compound]					E. coli MKC (ppm) [1, 6]: 136 ppm; S. aureus MKC (ppm) ([2]; Table 1.4b, solvent DMSO): >1090 ppm; S. aureus MIC (ppm) [3, 7]: 102 ppm; S. aureus MBC (ppm) ([3]; Table 1.5, no visible growth): 204 ppm
CCCCCCCC(CC(=O)NCCO)O[C@@H]1O[C@@H](C)[C@H](O)[C@@H](O)[C@H]1O[C@@H]1O[C@@H](C)[C@H](O)[C@@H](O)[C@H]1O (stereo partly drawn) [3-(((2R,3R,4R,5R,6S)-4,5-dihydroxy-6-methyl-3-(((2S,3R,4R,5R,6S)-3,4,5-trihydroxy-6-methyltetrahydro-2H-pyran-2-yl)oxy)tetrahydro-2H-pyran-2-yl)oxy)-N-(2-hydroxyethyl)decanamide]	> 5240 µg/mL	> 5240 µg/mL	> 2090 µg/mL	> 2090 µg/mL	
CCCCCCCC(CC(=O)N(C)C)O[C@@H]1O[C@@H](C)[C@H](O)[C@@H](O)[C@H]1O[C@@H]1O[C@H](C)C(O)[C@@H](O)[C@H]1O (stereo partly drawn) [3-(((2R,3R,4R,5R,6S)-4,5-dihydroxy-6-methyl-3-(((2S,3R,4R,6R)-3,4,5-trihydroxy-6-methyltetrahydro-2H-pyran-2-yl)oxy)tetrahydro-2H-pyran-2-yl)oxy)-N,N-dimethyldecanamide]	> 5070 µg/mL	> 5070 µg/mL	> 508 µg/mL	> 508 µg/mL	
CCCCCCCCC[C@@H](O)CC(=O)O [(3R)-3-hydroxydodecanoic acid, reference compound]					MBC [1, 8]: > 865 µg/mL; minimal kill concentration (20-minute contact) [2, 9]: 865 µg/mL
CCCCCCCC(CC(=O)NC1CCCCC1)O[C@@H]1O[C@@H](C)[C@H](O)[C@@H](O)[C@H]1O[C@@H]1O[C@@H](C)[C@H](O)[C@@H](O)[C@H]1O (stereo partly drawn) [N-cyclohexyl-3-(((2R,3R,4R,5R,6S)-4,5-dihydroxy-6-methyl-3-(((2S,3R,4R,5R,6S)-3,4,5-trihydroxy-6-methyltetrahydro-2H-pyran-2-yl)oxy)tetrahydro-2H-pyran-2-yl)oxy)decanamide]	> 5620 µg/mL	> 5620 µg/mL	> 2250 µg/mL	> 2250 µg/mL	
N-benzyl-3-(((2R,3R,4R,5R,6S)-4,5-dihydroxy-6-methyl-3-(((2R,3S,4S,5S,6S)-3,4,5-trihydroxy-6-methyltetrahydro-2H-pyran-2-yl)oxy)tetrahydro-2H-pyran-2-yl)oxy)decanamide					E. coli MKC (ppm) [1, 4]: >5696.9 ppm; S. aureus MKC (ppm) [2, 10]: >5696.9 ppm; S. aureus MBC (ppm) ([3]; Table 5): >2278.3 ppm; S. aureus MIC (ppm) ([3]; Table 5): 2278.8 ppm
CCCCCCCC(CC(=O)NCCO[Si](C)(C)C(C)(C)C)O[C@@H]1O[C@@H](C)[C@H](O)[C@@H](O)[C@H]1O[C@@H]1O[C@@H](C)[C@H](O)[C@@H](O)[C@H]1O (stereo partly drawn) [N-(2-((tert-butyldimethylsilyl)oxy)ethyl)-3-(((2R,3R,4R,5R,6S)-4,5-dihydroxy-6-methyl-3-(((2S,3R,4R,5R,6S)-3,4,5-trihydroxy-6-methyltetrahydro-2H-pyran-2-yl)oxy)tetrahydro-2H-pyran-2-yl)oxy)decanamide]	> 6370 µg/mL	> 6370 µg/mL	637 µg/mL (≈ 0.999 mM)	319 µg/mL (≈ 0.5 mM)	
Methyl 3-(((2R,3R,4R,5R,6S)-4,5-dihydroxy-6-methyl-3-(((2R,3S,4S,5S,6S)-3,4,5-trihydroxy-6-methyltetrahydro-2H-pyran-2-yl)oxy)tetrahydro-2H-pyran-2-yl)oxy)decanoate					E. coli MKC (ppm) [1, 4]: >4945.8 ppm; S. aureus MKC (ppm) [2, 10]: >4945.8 ppm; S. aureus MBC (ppm) ([3]; Table 5): 1978.3 ppm; S. aureus MIC (ppm) ([3]; Table 5): 1978.3 ppm
CCCCCCCCCCCC(O)CC(=O)O (racemic) [DL-β-Hydroxymyristic acid, reference compound]					E. coli MKC (ppm) [1, 6]: 122 ppm; S. aureus MKC (ppm) ([2]; Table 1.4b, solvent DMSO): 244 ppm; S. aureus MIC (ppm) [3, 7]: 365 ppm; S. aureus MBC (ppm) ([3]; Table 1.5, no visible growth): 731 ppm
CCCCCCCC(CC(=O)O)O[C@@H]1O[C@@H](C)[C@H](O)[C@@H](O)[C@H]1O[C@@H]1O[C@H](C)C(O)[C@@H](O)[C@H]1O (stereo partly drawn) [calcium 3-(((2R,3R,4R,5R,6S)-4,5-dihydroxy-6-methyl-3-(((2S,3R,4R,6R)-3,4,5-trihydroxy-6-methyltetrahydro-2H-pyran-2-yl)oxy)tetrahydro-2H-pyran-2-yl)oxy)decanoate]			> 4000 µg/mL	> 4000 µg/mL	MBC [1]: > 9390 µg/mL; MBC ([2]; Staphylococcus aureus, ATCC6538, 20 min, read-out: S. aureus MKC (ppm)): > 9390 µg/mL
CCCCCCCC(CC(=O)N(C)OC)O[C@@H]1O[C@@H](C)[C@H](O)[C@@H](O)[C@H]1O[C@@H]1O[C@@H](C)[C@H](O)[C@@H](O)[C@H]1O (stereo partly drawn) [3-(((2R,3R,4R,5R,6S)-4,5-dihydroxy-6-methyl-3-(((2S,3R,4R,5R,6S)-3,4,5-trihydroxy-6-methyltetrahydro-2H-pyran-2-yl)oxy)tetrahydro-2H-pyran-2-yl)oxy)-N-methoxy-N-methyldecanamide]	> 5240 µg/mL	> 5240 µg/mL	> 2090 µg/mL	2090 µg/mL (≈ 4 mM)	
CCCCCC(O)CC(=O)O (racemic) [(±)-3-Hydroxyoctanoic acid, reference compound]					MBC [1, 8]: > 641 µg/mL; minimal kill concentration (20-minute contact) [2, 9]: > 641 µg/mL
